# B1: recombinant mulFN-γ: recombinant murine interferon-gamma (protein, UniProt P01580 23-155, looked up)
# Interferon gamma: HGTVIESLESLNNYFNSSGIDVEEKSLFLDIWRNWQKDGDMKILQSQIISFYLRLFEVLKDNQAISNNISVIESHLITTFFSNSKAKKDAFMSIAKFEVNNPQVQRQAFNELIRVVHQLLPESSLRKRKRSRC
# Legend:
# [1] = tested on: high endothelial venules (HEV) of peripheral lymph nodes (PLN); test: Adhesion under shear of human PBL to PLN HEV in frozen sections from hormone-treated ovariectomized mice; assay type: in vivo, mouse; conditions: for L-selectin-dependent and α4 integrin-dependent lymphocyte adhesion to endothelium of secondary lymphoid tissues, compared to pregnancy: hormone-treated Ovx mice versus pregnant mice, shear flow
# From the text: (§1) C57BI/6J (Jackson Laboratory, Bar Harbor, Me.) and Balb/c (Taconic, Germantown, N.Y.) mice, aged 7–8 wk were studied. Some females were used for timed matings with the morning of the copulation plug designated gd 0. Other females (n=34) were surgically ovariectomized under Avertin anaesthesia (24). Females were rested 6 days and then received daily subcutaneous injections of either hormone dissolved in sesame oil or sesame oil alone between 9.00–11.00 a.m. as indicated in FIG. 2.^81-84 Some of the Ovx hormone-treated mice also had 10 μl sterile sesame oil injected into a uterine horn to induce decidualization 48 h prior to euthanasia. Ovx mice were euthanized 24 hours after receiving their last injection and vaginal smears were collected and stained with Wright-Giemsa to confirm treatment success. Non-pregnant (NP) controls were virgin females who had never been paired with males. All procedures were performed under appropriate animal utilization protocols. The following samples were collected from each mouse and embedded in OCT (Miles Laboratories) for cryosectioning: i) a pool of 10–12 PLN from subcutaneous and intermuscular sites; ii) a pool of 10–12 intestinal PP; iii) the entire pancreas; and iv) the uterus. For some experiments, the median iliac lymph nodes that drain the pelvic organs, including the uterus, were also dissected. Non-decidualized uteri were trimmed at the ovarian and cervical ends, then incised longitudinally along one side on an axis midway between the mesometrial and anti-mesometrial aspects. The mesometrium (the mesentery suspending the uterus, also known as the broad ligament) was not removed and served as a positional landmark during analyses. For embedding, samples were oriented to produce full thickness longitudinal sections that included both antimesometrial and mesometrial sides. Uteri from gd 3 were flushed for blastocysts to confirm pregnancy. The cell suspensions evaluated for adhesive interactions with endothelium were human peripheral blood lymphocytes (PBL) isolated from random (female and male) normal donor buffy coat leukocyte concentrates (American Red Cross, Rochester, N.Y.);^85,68 and TK-1 cells (an alpha integrin^high, L-selectin^low mouse T lymphoma cell line).^85 In selected experiments, human PBL were cultured 6 hr at 37° C. or 40° C. before being applied to tissue sections, as previously described^12. In all assays, some cell aliquots were incubated with function blocking mAb specific for human L-selectin (DREG-56, American Type Cell Collection [ATCC], Manassas, Va., 10 μg/ml) or human alpha4 integrin (HP2/1, Coulter Immunology, Hialeah, Fla., 10 μg/ml). To identify adherent human NK cells, PBL aliquots were pre-labeled with anti-CD56 mAb (NKG1, Coulter Immunology, diluted 1:100) followed by rabbit anti-mouse Ig-rhodamine isothiocynate (RITC) Ab as described previously (10;29). Control aliquots were treated with the secondary reagent alone. […] Following removal of non adherent cells, glutaraldehyde-fixed specimens were stained with 0.5% toluidine blue and adhesion was scored on 300–500 HEV/PLN or PP specimen or equivalent numbers of small vessels in pancreatic tissue. When CD56-pre-labeled cells were used, fluorescent cells were quantified in 10 high power fields (HPF; one HPF=5 mm^2) at 200× magnification using an Olympus BH2/RFL fluorescence microscope (Olympus Optical, Tokyo, Japan) (10;29). […]
# [2] = tested on: high endothelial venules (HEV) of Peyer's Patches (PP); test: Adhesion under shear of TK-1 cells to Peyer's Patch HEV from hormone-treated ovariectomized mice; assay type: in vivo, mouse; conditions: tissue from Ovx mice treated with hormone, versus placebo or virgin controls
# From the text: C57BI/6J (Jackson Laboratory, Bar Harbor, Me.) and Balb/c (Taconic, Germantown, N.Y.) mice, aged 7–8 wk were studied. Some females were used for timed matings with the morning of the copulation plug designated gd 0. Other females (n=34) were surgically ovariectomized under Avertin anaesthesia (24). Females were rested 6 days and then received daily subcutaneous injections of either hormone dissolved in sesame oil or sesame oil alone between 9.00–11.00 a.m. as indicated in FIG. 2.^81-84 Some of the Ovx hormone-treated mice also had 10 μl sterile sesame oil injected into a uterine horn to induce decidualization 48 h prior to euthanasia. […] The cell suspensions evaluated for adhesive interactions with endothelium were human peripheral blood lymphocytes (PBL) isolated from random (female and male) normal donor buffy coat leukocyte concentrates (American Red Cross, Rochester, N.Y.);^85,68 and TK-1 cells (an alpha integrin^high, L-selectin^low mouse T lymphoma cell line).^85 In selected experiments, human PBL were cultured 6 hr at 37° C. or 40° C. before being applied to tissue sections, as previously described^12. […] Following removal of non adherent cells, glutaraldehyde-fixed specimens were stained with 0.5% toluidine blue and adhesion was scored on 300–500 HEV/PLN or PP specimen or equivalent numbers of small vessels in pancreatic tissue. […]
# uterine tissue = test: Adhesion of CD56-labeled human PBL to uterine tissue from hormone-treated ovariectomized mice; assay type: in vivo, mouse; conditions: for adhesion of CD56bright human lymphocytes to uterine tissue: uteri from Ovx mice treated with hormone, versus placebo-treated Ovx or virgin
# From the text: as §1, with “Uteri from gd 3 were flushed for blastocysts to confirm pregnancy.” left out, “described^12.” for “described^12. In all assays, some cell aliquots were incubated with function blocking mAb specific for human L-selectin (DREG-56, American Type Cell Collection [ATCC], Manassas, Va., 10 μg/ml) or human alpha4 integrin (HP2/1, Coulter Immunology, Hialeah, Fla., 10 μg/ml). To identify adherent human NK cells, PBL aliquots were pre-labeled with anti-CD56 mAb (NKG1, Coulter Immunology, diluted 1:100) followed by rabbit anti-mouse Ig-rhodamine isothiocynate (RITC) Ab as described previously (10;29). Control aliquots were treated with the secondary reagent alone.”
# pancreas endothelium = test: Adhesion of PBL or TK-1 cells to pancreas endothelium from hormone-treated ovariectomized mice; assay type: in vivo, mouse; conditions: tissue from hormone-treated Ovx mice
# From the text: C57BI/6J (Jackson Laboratory, Bar Harbor, Me.) and Balb/c (Taconic, Germantown, N.Y.) mice, aged 7–8 wk were studied. Some females were used for timed matings with the morning of the copulation plug designated gd 0. Other females (n=34) were surgically ovariectomized under Avertin anaesthesia (24). Females were rested 6 days and then received daily subcutaneous injections of either hormone dissolved in sesame oil or sesame oil alone between 9.00–11.00 a.m. as indicated in FIG. 2.^81-84 Some of the Ovx hormone-treated mice also had 10 μl sterile sesame oil injected into a uterine horn to induce decidualization 48 h prior to euthanasia. […]
# The cell suspensions evaluated for adhesive interactions with endothelium were human peripheral blood lymphocytes (PBL) isolated from random (female and male) normal donor buffy coat leukocyte concentrates (American Red Cross, Rochester, N.Y.);^85,68 and TK-1 cells (an alpha integrin^high, L-selectin^low mouse T lymphoma cell line).^85 In selected experiments, human PBL were cultured 6 hr at 37° C. or 40° C. before being applied to tissue sections, as previously described^12. […] Following removal of non adherent cells, glutaraldehyde-fixed specimens were stained with 0.5% toluidine blue and adhesion was scored on 300–500 HEV/PLN or PP specimen or equivalent numbers of small vessels in pancreatic tissue. […]
# [3] = tested on: uterine artery and decidua; conditions: alymphoid mice, daily 100–1000 IU/6 days; cited from earlier work
# human lymphocytes = test: Effect of blood collection anti-coagulant on adhesion of human lymphocytes to LN from pregnant mice; assay type: cell-based; conditions: blood collected into the anti-coagulant
# Experimental: Male and female subjects of legal age and in good health were recruited to donate up to 30 ml of blood, using venipuncture into evacuated, sterile blood collection tubes. All subjects were informed about the risks of participation in this study and signed approved informed consent forms. The blood was layered onto an equal volume of Histopaque 1.077 (Sigma) and centrifuged at 400×g for 30 min at RT according to manufacturers instructions. The cells at the interface were collected, washed thrice and counted.
# The effects of anti-coagulants on adhesive properties of isolated PBL were assessed. Ten ml of blood was collected by venipuncture (40 ml collected per subject) into sterile evacuated tubes containing either Acid Citrate Dextrose (ACD), EDTA, Sodium Citrate, or heparin. Lymphocytes were isolated as described above and applied to sections of LN from pregnant mice. The sections were assessed for lymphocyte adhesion by microscopy.
molecule,measurement,setting,value
"CC(=O)[C@H]1CC[C@H]2[C@@H]3CCC4=CC(=O)CC[C@]4(C)[C@H]3CC[C@]12C [P4, progesterone]","L-selectin-dependent and α4 integrin-dependent lymphocyte adhesion to endothelium of secondary lymphoid tissues, compared to pregnancy",[1],fully mimicked the functional gains in adhesion promoted by pregnancy
same,"L-selectin-dependent and α4 integrin-dependent lymphocyte adhesion to endothelium of secondary lymphoid tissues, compared to pregnancy",[1]; listed as progesterone,equivalent to pregnancy
same,L-selectin-dependent adhesion of human PBL to PLN HEV,"[1]; tissue from Ovx mice treated with hormone, versus placebo (oil) or virgin controls",enhanced L-selectin-dependent binding
same,alpha4 integrin/MAdCAM-1-dependent TK-1 cell adhesion to PP HEV,[2],"enhanced, progesterone-dependent, and α4 integrin-dependent, binding"
same,adhesion of CD56bright human lymphocytes to uterine tissue,uterine tissue,equivalent functional changes
same,adhesion of CD56bright human lymphocytes to uterine tissue,uterine tissue; listed as progesterone,promoted
"C[C@]12CC[C@@H]3c4ccc(O)cc4CC[C@H]3[C@@H]1CC[C@@H]2O [E2, 17-beta estradiol]","L-selectin-dependent and α4 integrin-dependent lymphocyte adhesion to endothelium of secondary lymphoid tissues, compared to pregnancy",[1],fully mimicked the functional gains in adhesion promoted by pregnancy
same,"L-selectin-dependent and α4 integrin-dependent lymphocyte adhesion to endothelium of secondary lymphoid tissues, compared to pregnancy",[1]; listed as estrogen,equivalent to pregnancy
same,adhesion of PBL or TK1 cells to pancreas,pancreas endothelium,no effect
same,adhesion of PBL or TK1 cells to pancreas,pancreas endothelium; listed as estrogen,no increase
same,adhesion of CD56bright human lymphocytes to uterine tissue,uterine tissue,equivalent functional changes
same,percentage of CD56bright cells among lymphocytes adhering to uterine tissue (enrichment),"uterine tissue; uterine tissue from mouse receiving hormone therapy, starting preparation 2–3% CD56bright",70%
Tumor necrosis factor-alpha,uterine artery modification and decidua,[3],lacked these effects
O=C([O-])CC(O)(CC(=O)[O-])C(=O)[O-].[Na+].[Na+].[Na+] [sodium citrate],adhesion of isolated human lymphocytes to LN from pregnant mice,human lymphocytes,did not interfere with adhesion
B1,uterine artery modification and decidua,[3],promoted full uterine artery modification and normalized deciduas
